Source: patent US20030104603A1, “Protein” (priority 2001, published 2003)

Tested on: mouse EST cluster TC20248 (CitE homolog gene) in white adipose tissue
Test: Affymetrix GeneChip analysis of white adipose tissue mRNA from β3-agonist treated mice
Assay type: in vivo
Conditions: male C57B1/6J mice, CL 316,243 1 mg/kg injected every 12 h, 2 doses, white adipose tissue collected at 24 h, versus saline control, Mu19K GeneChips
Procedure: Male C57B1/6J mice, 12 weeks old, were housed under conditions of ambient temperature and free access to water and chow. Either the β3-selective agonist CL 316,243 (1mg/kg) or saline was injected every 12h with 2 doses during a total period of 24 hours. The animals were decapitated 24 h after the experiment was started, and the white adipose tissue was quickly collected and immediately frozen into liquid nitrogen.
PolyA^+ mRNAs were extracted from white adipose tissue from control and β3-agonist treated mice respectively. They were reverse transcribed using a T7-tagged oligo-dT primer and double-stranded cDNAs were generated. These cDNAs were then amplified and labeled using In vitro transcription (IVT) with T7 RNA polymerase and biotinylated nucleotides. The populations of cRNAs obtained after IVT were purified and fragmented by heat to produce a distribution of RNA fragment sizes from approximately 35 to 200 bases. […] The cartridges were scanned using a Hewlett-Packard confocal scanner and the images were analyzed with the GeneChip 3.1 software (Affymetrix). The identity of the genes represented on the Affymetrix GeneChips was assessed by performing searches using BLAST (Altschul et al., J. Molec. Biol., 1990, 215, 403-410), which is incorporated herein by reference in its entirety) on available protein sequence databanks. […]

C[C@H](Cc1ccc2c(c1)OC(C(=O)[O-])(C(=O)[O-])O2)NC[C@H](O)c1cccc(Cl)c1.[Na+].[Na+] [CL 316,243]
transcriptional change of the CitE homolog gene (TIGR Mouse Gene Index TC20248): down-regulated
transcriptional change of the CitE homolog gene (TIGR Mouse Gene Index TC20248) (listed as β3-agonist): downregulated by a factor of two
